The experiment deals with Tyrosine-protein kinase BTK (Homo sapiens, UniProt Q06187). Description: Btk In Vitro Inhibitory Assay: Human Btk kinase (Genbank accession # NP_000052) was purified from insect cells as a full-length construct containing a N-terminal 6×-His tag. Btk kinase activity was determined using a radiometric filter binding assay. Measurements are performed in a low μL reaction volume 384-well assay plates. BTK enzyme (8 nM final in reaction), inhibitor (at requested doses), and 0.2 mg/mL peptide substrate (Poly-Glu-Tyr, 4:1 ratio) are incubated in a reaction buffer composed of 20 mM Hepes (pH 7.5), 10 mM MgCl2, 1 mM EGTA, 0.02% Brij35, 0.02 mg/ml BSA, 0.1 mM Na3VO4, 2 mM DTT, 1% DMSO for 15 min. followed by addition of 1 μM ATP to start the assay. Kinase reactions are carried out for 120 min. at room temperature. The reaction was stopped by spotting of reaction sample onto P81 cationic exchange paper (Whatman). Unbound phosphate was removed by extensive washing of filters in 0.75% Phosphoric acid.

SMILES strings stand for the structures. Bounds are passed on as bounds.

Tyrosine-protein kinase BTK, sequence (Q06187 whole entry): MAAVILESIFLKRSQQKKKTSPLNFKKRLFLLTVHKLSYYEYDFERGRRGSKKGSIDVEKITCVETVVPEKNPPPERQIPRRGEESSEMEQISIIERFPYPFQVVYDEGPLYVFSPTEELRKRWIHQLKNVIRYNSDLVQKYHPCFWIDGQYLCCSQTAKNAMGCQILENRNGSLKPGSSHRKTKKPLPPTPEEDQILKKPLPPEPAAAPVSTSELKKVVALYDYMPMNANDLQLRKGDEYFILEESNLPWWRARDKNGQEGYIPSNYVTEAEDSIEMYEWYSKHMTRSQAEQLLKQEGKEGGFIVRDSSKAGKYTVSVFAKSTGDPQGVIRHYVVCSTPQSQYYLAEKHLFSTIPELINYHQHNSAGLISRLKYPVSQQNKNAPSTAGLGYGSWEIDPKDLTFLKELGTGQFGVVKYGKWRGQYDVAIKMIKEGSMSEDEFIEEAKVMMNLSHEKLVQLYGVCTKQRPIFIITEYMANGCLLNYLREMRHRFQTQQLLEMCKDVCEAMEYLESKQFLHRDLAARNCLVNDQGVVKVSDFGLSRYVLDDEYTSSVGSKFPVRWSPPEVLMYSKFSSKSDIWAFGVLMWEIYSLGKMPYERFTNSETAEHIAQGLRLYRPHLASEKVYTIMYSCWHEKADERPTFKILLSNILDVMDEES

Turning to `NC(=O)c1nnc(N2CCC[C@@H](NC(=O)c3ccc4nccn4c3)C2)nc1Nc1ccc(C(=O)N2CCOCC2)cc1`, the IC50 (usually the concentration that gives 50% inhibition) is < 10 nM. As for `NC(=O)c1ncc(N2CCC[C@@H](N3CCN(c4cccc(Cl)c4)C3=O)C2)nc1Nc1ccc(C2CCN(C3CCCC3)CC2)cc1`, the 50% inhibitory concentration (IC50) was < 10 nM.

For the origin of these results see ChEMBL document CHEMBL5725990, “Inhibitors of Bruton's tyrosine kinase” (2017).
